These results are taken from patent US5565433A, “Sulfated β-glycolipid derivatives as cell adhesion inhibitors” (Bristol-Myers Squibb Company, priority 1996, dated 1996).

Assay [1] concerns Reverse Passive Arthus Reaction in Rats. Put plainly: Reverse Passive Arthus Reaction in Rats, vascular permeability (VP). Type of assay: in vivo. The following applies: rat, IV, % inhibition at 3 mg single dose, 4 hours. From the text:
(§1) 3. Reverse Passive Arthus Reaction in Rats
(§2) The reverse passive Arthus reaction in rats is a modification of the method by Mulligan et al., as described in J. Clin. Invest., (1991 ) 88:1396-1406. This is an experimental model in which the interaction of antigen-antibody complexes and complement leads to a severe vasculitis that is associated with edema, induration, erythema and hemorrhage. The interaction between the antigen-antibody complexes and complement leads to a localized influx of neutrophils. These neutrophils release a variety of mediators that are associated with tissue damage and vascular permeability. The localized inflammatory reaction is measured using different techniques i.e., vascular permeability and neutrophil influx which is evaluated both biochemically and microscopically.
(§3) Male Sprague Dawley specific pathogen-free rats with jugular vein cannulae (280-320 g, Hill Top Labs, Pa.) are used in these studies. Animals are acclimated for at least 1 day and individually housed in stainless steel cages. The dorsal region of the rats is closely clipped 2 days prior to the experiments and divided into 4 sites on each side of the midline. Prior to all injections the rats are sedated with 0.4 ml per 300 gm rat of ketamine/rompun [1000 mg (10 ml) of ketamine HCL is mixed with 40 mg (2.0 ml) Rompun] administered IP and or inhalation anesthesia with metafane (methoxyflurane).
(§4) Bovin Serum Albumin (BSA) and rabbit polyclonal IgG rich in anti-BSA are purchased from Sigma Chemical Co. (St. Louis, Mo.). Radiolabelled ^125 I-BSA (spAct 1-5 μCi/μg) is purchased from Dupont NEN (Boston, Mass.).
(§5) Each rat is administered intradermal (ID) injection of (0.4 mg, 0.6 mg and 0.8 mg) anti-BSA in a volume of 100 μl per injection in normal saline. The ID injections are randomized near the mid dorsal region on both sides of the back bone. Immediately after the ID injections of the anti-BSA, the rats are administered intravenous (IV) injections of BSA (10 mg in 1.0 ml) in normal saline containing ^125 I labeled BSA (1 μCi/ml BSA or 5.0 μCi/kg body wt) for quantification of dermal vascular injury. Anti-inflammatory agents such as inhibitors of adhesion molecules of the present invention are administered IV at a single dose of 3 mg immediately after BSA. Four (4) hours after the IV injection of BSA, the rats are anesthetized with metafane and 2 to 3 ml of blood is withdrawn via the cannula into an anticoagulant containing (EDTA or Heparin) tube and plasma separated and saved for neutrophil and albumin quantitation. The rats are killed and the skin surrounding the injection site (15 mm diameter) is punched out and weighed. The skin samples and a fixed volume of plasma (0.1 to 1.0 ml) is analyzed in a gamma-counter for ^125 I content. Skin samples from the contralateral side are processed and analyzed for myeloperoxidase activity (MPO) as a measure of neutrophil accumulation. As needed, samples are also processed for histological evaluation of the reacted sites.
Vascular Permeability (VP)
The calculation of the plasma protein exudation into skin is made by determining the radioactivity in the tissue and relating this to the level of radioactive albumin in the blood at the time of sacrifice. […] [formula]
Percent inhibition of the test compound at 3 mg was determined as follows: [formula] Myeloperoxidase (MPO)

Assay [2] has the same test system. As to the kind of experiment: Reverse Passive Arthus Reaction in Rats, myeloperoxidase (MPO). Type of assay: in vivo. The following applies: rat, IV, % inhibition at 3 mg single dose, 4 hours.
Description: as §1, §2, §3, §4, §5
MPO is located in the azurephil granules of polymorphonuclear leukocytes (PMN). Because of its abundance in these cells (5% dry weight), this enzyme is used as a marker for tissue neutrophil content. For tissue MPO content, the method of Bradley, et al., was used as described in J. Invest. […] Change in absorbance at 450 nm was measured at room temperature using a Vmax kinetic plate reader (Molecular Devices, Pale Alto, Calif., USA). Percent inhibition of the test compound at 3 mg dose was determined as follows: [formula] […]

Consider `CCCCCCCCCCCCC/C=C/[C@@H](O)[C@H](CO[C@@H]1O[C@H](COS(=O)(=O)O)[C@H](OS(=O)(=O)O)[C@H](O)[C@H]1O)NC(=O)CCCCCCCCCCCCCCC` [Example 2, (2S,3R,4E)-3-Hydroxy-2-hexadecanoylamino-1-[4,6-di-O-(sodiumoxysulfonyl)-β-D-galactopyranosyloxy]-4-octadecene], for which the “RPA VP % Inhib.” value in assay [1] is reported as 63%. For the same compound, in assay [2], the “RPA MPO % Inhib.” value is listed as 33.5%.

As for `CCCCCCCC/C=C\CCCCCCCCCCCCCC(=O)N[C@@H](CO[C@@H]1O[C@H](COS(=O)(=O)O)[C@H](OC(=O)c2ccccc2)[C@H](OC(=O)c2ccccc2)[C@H]1OS(=O)(=O)O)[C@@H](/C=C/CCCCCCCCCCCCC)OC(=O)c1ccccc1` [Example 7, (2S,3R,4E)-3-Benzoyloxy-1-[3,4-di-O-benzoyl-2,6-di-O-(sodiumoxysulfonyl)-β-D-galactopyranosyloxy]-2-(cis-15-tetracosenoylamino)-4-octadecene], the “RPA VP % Inhib.” value in assay [1] amounted to 56%. Besides, in assay [2], the “RPA MPO % Inhib.” value is 46%.
